Test results taken from patent US12370143B2, “Compound or salt thereof and lipid particles” (FUJIFILM Corporation, priority 2018, dated 2025).
Like-named read-outs stand apart in the source and are kept apart here.

What was measured:
[1] = Particle size of nucleic acid lipid particles (Luc2-siRNA); type: physicochemical; conditions: compound/DSPC/cholesterol/DMG-PEG2000 50/10/38.5/1.5
Experimental: By using the dispersion liquid of lipid particles as it was, the particle size of the lipid particles was measured using a zeta potential/particle size measurement system ELS-Z2 (Otsuka Electronics Co., Ltd.).
(§1) The compounds described in Table 2, L-α-distearoylphosphatidylcholine (trade name: COATSOME® MC-8080; NOF corporation), cholesterol (trade name: Choesterol HP; NIPPON FINE CHEMICAL CO., LTD.), and 1,2-dimyristoyl-rac-glycero-3-(methylpolyoxyethylene 2000) (hereinafter, called DMG-PEG2000) (trade name: SUNBRIGHT® GM-020; NOF corporation) were dissolved in ethanol at a molar ratio of 50/10/38.5/1.5 such that the total lipid concentration became 20 mmol/L, thereby obtaining an oil phase.
(§2) An aqueous nucleic acid solution obtained by dissolving 5 mg of Luc2-siRNA having the sequence described in Biomacromolecules (2013) 14, p. 3905 in 1 mL of sterile water was diluted with 10 mmol/L acetate buffer having a pH 4 such that the nucleic acid concentration became 19.7 μmol/L, thereby obtaining a water phase. Then, the water phase and the oil phase were mixed together by a micromixer (see JP5288254B) using a syringe pump such that the volume ratio of water phase:oil phase became 3:1 (final ratio of siRNA/lipid=339 (mol/mol)), and the mixed solution was diluted 2× with PBS, thereby obtaining a dispersion liquid of nucleic acid lipid particles. The dispersion liquid was dialyzed (Slide-A-Lyzer G2, MWCO: 10 kD, Thermo Fisher Scientific) using a phosphate buffered saline such that ethanol was removed, thereby obtaining nucleic acid lipid particles.
The particle size of the nucleic acid lipid particles was measured by the same method as that in <Preparation of lipid particles>.

[2] = system: DMS273 cells constantly expressing Luc; test: Target reporter protein (Luc) knockdown in cell, reporter protein assay; type: cell-based; conditions: Homo sapiens, DMS-273
Experimental: The nucleic acid lipid particles prepared by the same method as that in <Preparation of nucleic acid lipid particles> by using the compounds described in Table 3 were evaluated by reporter assay by the following method.
By using pGL4.50 Luc2 (E1310 Promega), DMS273 cells (human small cell lung cancer) (European Collection of Authenticated Cell Cultures) constantly expressing Luc were prepared. RPMI (Gibco) (10% FBS (Gibco), 1% Penicillin-Streptomycin (Gibco), and 200 μg/mL Hygromycin (Wako)) was used as a culture medium. DMS273 cells (2.0×10^3) constantly expressing luciferase (Luc) were seeded in a 96-well plate and cultured in a 5% CO2 incubator for 24 hours, and then the medium was replaced. Then, 10 μL of each of the dispersion liquids of lipid particles diluted with PBS (Gibco) to yield a concentration of 1 to 1,000 nmol/L was added to the 96-well plate, and the final concentration was adjusted to 0.1 to 100 nmol/L (total amount of liquid: 110 μl). Thereafter, the cells were cultured in a 5% CO2 incubator for 24 hours, the medium was then replaced, and the cells were further cultured for 24 hours.
After the viable cell count was determined, the expression amount of Luc was quantified using a Steady Glo assay kit (Promega), and the knockdown efficiency was calculated according to the following equation. Then, the IC50 concentration at which the expression amount of Luc was knocked down to 50% was calculated.

[3] = Encapsulation rate of siRNA in nucleic acid lipid particles (Luc2-siRNA); type: physicochemical; conditions: compound/DSPC/cholesterol/DMG-PEG2000 50/10/38.5/1.5
Experimental: as §1, §2
A 3 mol/L aqueous sodium acetate solution (30 μL) and 9 μL of glycogen were added to 60 μL of the lipid particles retaining nucleic acids, and then 1.5 mL of ethanol was added thereto such that only the nucleic acids were precipitated while the lipid was dissolved. Then, the supernatant was removed by centrifugation. After the precipitates were air-dried for 15 minutes or longer, water was added thereto such that the precipitates were redissolved, and the concentration thereof was measured using Nanodrop NF1000 (Thermo Fisher Scientific), thereby quantifying the total nucleic acid concentration.
The nucleic acid concentration was quantified using a Quant-iT RiboGreen RNA Assay Kit (Thermo Fisher Scientific) according to the protocol. First, a 20×TE buffer included in the above kit was diluted with water, thereby obtaining a 1×TE buffer. TE represents Tris/EDTA (ethylenediaminetetraacetic acid). In order to quantify only the nucleic acid in the outer water phase, the dispersion liquid of lipid particles retaining nucleic acids was diluted 10,000× with the 1×TE buffer.
The 10,000× diluted dispersion liquid of lipid particles (100 μL) was put in a 96-well plate, then 100 μL of a RiboGreen reagent (reagent included in the Quanti-iT Ribogreen RNA Assay Kit described above) diluted 2000× with the 1×TE buffer was added to a sample, and fluorescence (excitation wavelength: 485 nm, fluorescence wavelength: 535 nm) was measured using a plate reader Infinit EF200 (TECAN), thereby quantifying the nucleic acid concentration in the outer water phase.
By using the total nucleic acid concentration obtained through the above steps and the quantified nucleic acid concentration in the outer water phase, the nucleic acid encapsulation rate of the nucleic acid lipid particles was calculated according to the following Equation. Nucleic acid encapsulation rate (%)=(total nucleic acid concentration−nucleic acid concentration in outer water phase)/total nucleic acid concentration×100 The results are shown in Table 2.

[4] = Luc2-siRNA lipid particles using the compound, siRNA 0.1 to 100 nmol/L, concentration at which Luc expression is knocked down to 50%, read-out: IC50

Compound | Particle size (nm) [1] | Nucleic acid encapsulation rate [3] | IC50 [2, 4] | IC50 [2]
CCCCC/C=C\C/C=C\CCCCCCCCN(CCCCCCCC/C=C\C/C=C\CCCCC)C(=O)OCCN(C)C [Comparative Example 3, reference compound] | 72.4 nm | 80% | – | > 100 nM
CCCCC/C=C\C/C=C\CCCCCCCCN(CCCCCCCC/C=C\C/C=C\CCCCC)C(=O)CCN(C)CCN(C)C [Comparative Example 7, 3-((2-(dimethylamino)ethyl)(methyl)amino)-N,N-di((9Z,12Z)-octadeca-9,12-dien-1-yl)propanamide, reference compound] | 71.9 nm | 87% | > 100 nM | –
CCCCC/C=C\C/C=C\CCCCCCCCN(CCCCCCCC/C=C\C/C=C\CCCCC)C(=O)OCCN1CCN(C)CC1 [Comparative Example 5, 2-(4-Methylpiperazin-1-yl)ethyl di((9Z,12Z)-octadeca-9,12-dien-1-yl)carbamate, reference compound] | 75.1 nm | 87% | > 100 nM | –
CCCCC/C=C\C/C=C\CCCCCCCCN(CCCCCCCC/C=C\C/C=C\CCCCC)C(=O)OC1CCN(CCN(C)C)CC1 [Example 3, 1-(2-(Dimethylamino)ethyl)piperidin-4-yl di((9Z,12Z)-octadeca-9,12-dien-1-yl)carbamate] | 83.6 nm | 100% | 43 nM | –
CCCCC/C=C\C/C=C\CCCCCCCCC(CCCCCCCC/C=C\C/C=C\CCCCC)OC(=O)CCCN(C)C [Reference Example 1, (6Z,9Z,28Z,31Z)-heptatriaconta-6,9,28,31-tetraen-19-yl-4-(dimethylamino)butanoate, reference compound] | 69.6 nm | 81% | 47 nM | –
CCCCC/C=C\C/C=C\CCCCCCCCN(CCCCCCCC/C=C\C/C=C\CCCCC)C(=O)OCC1CCCN(C)C1 (stereo not drawn) [Reference Example 2, (1-Methylpiperidin-3-yl)methyl di((9Z,12Z)-octadeca-9,12-dien-1-yl)carbamate, reference compound] | 118.4 nm | 85% | 59 nM | –
CCCCC/C=C\C/C=C\CCCCCCCCC(CCCCCCCC/C=C\C/C=C\CCCCC)OC(=O)OCCN(C)C [Comparative Example 4, 2-(Dimethylamino)ethyl((6Z,9Z,28Z,31Z)-heptatriaconta-6,9,28,31-tetraen-19-yl)carbonate, reference compound] | 62.8 nm | 77% | – | > 100 nM
CCCCC/C=C\C/C=C\CCCCCCCCC(CCCCCCCC/C=C\C/C=C\CCCCC)OC(=O)OCCN(C)CCN [Example 26] | 209.8 nm | 97% | 30 nM | –

Further lines, with some results ahead:

Particle size (nm) [1] | Nucleic acid encapsulation rate [3] | IC50 [2, 4] | Compound | IC50 [2]
66.1 nm | 81% | 10 nM | CCCCC/C=C\C/C=C\CCCCCCCCN(CCCCCCCC/C=C\C/C=C\CCCCC)C(=O)OC1CCCN(CCN(C)C)C1 (stereo not drawn) [Example 4, 1-(2-(Dimethylamino)ethyl)piperidin-3-yl di((9Z,12Z)-octadeca-9,12-dien-1-yl)carbamate] | –
68.5 nm | 76% | 16 nM | CCCCC/C=C\C/C=C\CCCCCCCCC(CCCCCCCC/C=C\C/C=C\CCCCC)OC(=O)OCCN(CCN(C)C)C(C)C [Example 25, 2-((2-(Dimethylamino)ethyl)(isopropyl)amino)ethyl((6Z,9Z,28Z,31Z)-heptatriaconta-6,9,28,31-tetraen-19-yl)carbonate] | –
70.1 nm | 77% | 19 nM | CCCCC/C=C\C/C=C\CCCCCCCC(CCCCCCCCCC)OC(=O)OCCN(C)CCN(C)C (stereo not drawn) [Example 29, 2-((2-(Dimethylamino)ethyl)(methyl)amino)ethyl((19Z,22Z)-octacosa-19,22-dien-11-yl)carbonate] | –
67.9 nm | 87% | 12 nM | CCCCC/C=C\C/C=C\CCCCCCCC(CCCCCCCCCC)OC(=O)OCCN(CC)CCN(C)C (stereo not drawn) [Example 33, 2-((2-(Dimethylamino)ethyl)(ethyl)amino)ethyl((19Z,22Z)-octacosa-19,22-dien-11-yl)carbonate] | –
98.6 nm | 84% | 14 nM | CCCCC/C=C\C/C=C\CCCCCCCCN(CCCCCCCC/C=C\C/C=C\CCCCC)C(=O)OCCN(C)CCN(CC)CC [Example 7, 2-((2-(Diethylamino)ethyl)(methyl)amino)ethyl di((9Z,12Z)-octadeca-9,12-dien-1-yl)carbamate] | –
147.2 nm | 70% | 27 nM | CCCCCCCCC(CCCCCC)COC(=O)CCCC(CCCCCC)OC(=O)OCCN(CCO)CCN(CC)CC (stereo not drawn) [Example 102, 2-Hexyldecyl 3-ethyl-12-hexyl-6-(2-hydroxyethyl)-10-oxo-9,11-dioxa-3,6-diazahexadecan-16-oate] | –
76.3 nm | 73% | 25 nM | CCCCCCCCC(CCCCCC)COC(=O)CCCCCC(CCCCCC)OC(=O)OCCN(CCN(CC)CC)C(C)C (stereo not drawn) [Example 116, 2-Hexyldecyl 3-ethyl-12-hexyl-6-isopropyl-10-oxo-9,11-dioxa-3,6-diazaoctadecan-18-oate] | –
101.6 nm | 84% | 15 nM | CCCCC/C=C\C/C=C\CCCCCCCCC(CCCCCCCC/C=C\C/C=C\CCCCC)OC(=O)OCCN(C)CCN(C)C [Example 20, 2-((2-(dimethylamino)ethyl)(methyl)amino)ethyl((6Z,9Z,28Z,31Z)-heptatriaconta-6,9,28,31-tetraen-19-yl)carbonate] | –
81 nm | 78% | 9 nM | CCCCC/C=C\C/C=C\CCCCCCCCC(CCCCCCCC/C=C\C/C=C\CCCCC)OC(=O)OCCN(CCCCCCCCCCCC)CCN(C)C [Example 53] | –
81 nm | 79% | 30 nM | CCCCCCC(CCCC)COC(=O)CCCCCCCCC(CCCCCC)OC(=O)OCCN(CCN(CC)CC)C(C)C (stereo not drawn) [Example 84, 2-butyloctyl 3-ethyl-12-hexyl-6-isopropyl-10-oxo-9,11-dioxa-3,6-diazahenicosan-21-oate] | –
